Reference: US20240101958A1, “NOVEL HUMAN ERYTHROID PROGENITOR CELL LINE HIGHLY […] B19 INFECTION AND USES THEREOF” (priority 2020, published 2024)

Legend:
B19V = B19V infection of hematopoietic cell lines, VP2 mRNA by RT-qPCR normalized to beta-actin; settings: for decrease of B19V infection by a factor: UT7/Epo-STI cells treated two days before B19V infection (JQ1 0.5 μM, TGF-β 2 ng/mL), 72 h post-inoculation
Protocol: Three distinct UT-7/Epo cell lines were used: 1) UT-7/Epo-S1, a subclone of UT-7/Epo (16), was obtained from Dr Kazuo Sugamura (Tohoku University Graduate School of Medicine, Japan). 2) UT-7/Epo and UT7/Epo-Cl3, a subclone isolated from UT-7/Epo3) UT7/Epo-STI cells were derived from UT-7/GM cell line and were maintained at low passage, with stringency for erythroid features. UT-7 cells were maintained at 37° C., under an atmosphere containing 5% CO2, in alpha minimum essential medium (αMEM) supplemented with 10% fetal calf serum (FCS), 2 mM L-glutamine (Hyclone), 100 U/mL penicillin, 100 μg/mL streptomycin and 2 U/mL recombinant human Erythropoietin (rh-Epo, Euromedex, RC213-15). Where specified, 0.5 μM JQ1 (Sigma-Aldrich, France) or 2 ng/mL TGF-β (Peprotech, France) was added to the culture medium for two days before B19V infection. TF1 (12) and TF1-ER erythroleukemia cells were maintained in Roswell Park Memorial Institute (RPM!) 1640 medium supplemented with 10% FCS, 2 mM L-glutamine (Hyclone), 100 U/mL penicillin, 100 μg/mL streptomycin and 2 U/mL rh-Epo or 5 ng/mL human granulocyte macrophage colony-stimulating factor (GM-CSF, Peprotech).
Plasma samples containing high titers of infectious B19V from asymptomatic blood donors were provided by the Etablissement Français du Sang (EFS). Plasma samples were determined to be negative for both B19V IgG and IgM, with a viral titer of 10^11 B19V DNA genome equivalent (ge)/mL. Briefly, cells were maintained in exponential growth condition by dilution to 0.3×10^6 cells/mL the day before infection. On the day of infection, cells were washed and diluted in FCS-free medium without Epo, at a density of 10·10^6 cells/mL. B19V inoculation was carried out in a 96-well plate, with 10 μL of cell suspension (10^5 cells) and 50 μL of a 100-fold dilution of B19V plasma (10^9 ge/mL), corresponding to a mean of 500 ge/cell. The cells were then incubated at 4° C. for 2 h, and then at 37° C., for 1 h, under an atmosphere containing 5% CO2. We added 140 μL of complete medium and maintained the cells in culture until 72 h. Where specified, we added chloroquine (CQ) to the complete medium, at a final concentration of 25 μM. Cell viability was assessed by trypan blue exclusion test (0.4% in PBS, Thermo Fisher Scientific), by counting blue and total cells under a microscope, with a hemocytometer. After correction for the dilution factor, viability was calculated as follows: % viable cells=[1−(number of blue cells/number of total cell)]×100. At 24, 48 or 72 h post infection (hpi), cells were centrifuged (8 mins at 300×g), supernatants were discarded and cell pellets were frozen at −80° C. until analysis.
Total RNA was extracted from cell pellets with the RNeasy 96 QIAcubeHT kit and a QIAcubeHT machine, according to the manufacturer's instructions. The extraction step included DNase treatment for 15 minutes, to decrease the risk of genomic DNA amplification during PCR. Real-time reverse transcription-quantitative PCR (RT-qPCR) was performed with the Taqman Fast Virus one-step PCR kit (Applied Biosystems). […] For control and normalization with respect to the number of cells, we used a duplex strategy. […] Reactions were performed on 5 μL of extracted RNA with the QuantStudio 3 PCR system and. The reaction began with reverse transcription at 48° C. for 15 mins, followed by inactivation of the reverse transcriptase and activation of the polymerase by heating at 95° C. for 10 mins, followed by 40 cycles of 15s at 95° C. and 30 s at 60° C. […]

B19 = assay: Production of B19 genome copies equivalent per mL of cell culture, qPCR; assay type: cell-based, Human Parvovirus B19; settings: UT7/Epo-E2 cell line after chloroquine treatment, 96 h post infection
Protocol: Cells (day 8 CD36^+EPC, UT7/Epo-S1, UT7/Epo-STI and UT7/Epo-E2) were inoculated with B19. 24 h after inoculation (24 hpi), cells were washed. 3 days later (96 hpi), supernatant was collected, DNA was isolated and B19 DNA was quantified by qPCR according to a B19 DNA standard (GenBank accession no. AY386330). Results are means±SD of 3 independent experiments. For CD36+ EPC, results are means±SD of three day-8 erythroid culture from CD34+ hematopoietic stem cells isolated from 3 different umbilical cord blood.
B19 genome production (FIG. 12) and transcription (FIG. 13) was evaluated at 96h post infection in CD36+EPC cells (day 8) and UT7 cell lines with or without addition of chloroquine (FIG. 13A and B). 96 h post infection, DNA was extracted from an aliquot of 1 mL of cell culture and RNA from cell pellets. B19 genome production was evaluated by qPCR and genome equivalent (GEq)/mL was calculated according to a B19 genome calibration curve. Transcription was analysed by RT-qPCR as previously described. […] UT7/Epo-E2 cell line presents the highest quantity of B19 genome equivalent produced, with at least 7.65×10^7 GEq/mL after chloroquine treatment. […]

Compound	decrease of B19V infection by a factor (B19V)	quantity of B19 genome equivalent produced (B19)	VP2 expression (B19V; TF1 and TF1-ER cells, under GM-CSF or Epo, with or without chloroquine treatment)	enhancement of UT7/Epo-S1 sensitivity to B19V (relative B19 mRNA expression) (B19V; UT7/Epo-S1 cells, chloroquine 25 μM, 72 h post-infection) [fold]	relative B19 mRNA level (VP2), UT7/Epo-S1 without chloroquine set to 1 (B19V; UT7/Epo-STI cells + chloroquine 25 μM, 72 h post-infection)
Cc1sc2c(c1C)C(c1ccc(Cl)cc1)=N[C@@H](CC(=O)OC(C)(C)C)c1nnc(C)n1-2 [JQ1]	about 10				
CCN(CC)CCCC(C)Nc1ccnc2cc(Cl)ccc12 (racemic) [Chloroquine, (RS)-N-(7-chloroquinolin-4-yl)-N,N-diéthyl-pentane-1,4-diamine]		at least 7.65×10^7 GEq/mL	undetectable	5	25.8+4.9
TGF-B: hormonal induction of erythroid differentiation (Peprotech)	about 10				
